The text below walks through data of US12428433B2, “Fluorine-containing heterocyclic derivatives with macrocyclic structure and use thereof” (ScinnoHub Pharmaceutical Co., Ltd, priority 2019, dated 2025).

A word on the microsomal CLint: it is the capacity of the preparation to metabolise the compound, expressed as a volume cleared per time. A high value points to rapid turnover. By half-life is commonly meant the time in which the quantity being followed falls by half. Low values mean rapid decline, high ones slow decline. Broadly, the IC50 is the concentration that gives 50% inhibition. The low end stands for greater potency in that assay, the high end for weaker potency in that assay.

A short description of data set [1]: Stability test in liver microsomes, mouse. The settings on record: for half-life at 1 μM: 0.5 mg/mL. In kind it is in vitro ADME. As to the method:
(§1) A stability of the compound of the present application in liver microsomes of human, rat and mouse was measured.
(§2) 3.1 A buffer and a liver microsome were prepared into an incubation solution according to the following table:
(§3) 3.2 The following two experiments were carried out respectively: a) incubation system added with coenzyme factor NADPH: 25 μL of NADPH (10 mM) was added into an incubation solution (mainly comprising a liver microsome and a phosphate buffer), so that final concentrations of the liver microsome and the NADPH were 0.5 mg/mL and […] respectively; and b) incubation system without coenzyme factor NADPH: 25 μL of phosphate buffer (100 mM) was added into the incubation solution, so that the final concentration of the liver microsome was 0.5 mg/mL. The incubation systems above were preheated at 37° C. for 10 minutes respectively.
(§4) 3.3 2.5 μL of positive control compound or a tested compound solution (100 μM) was added into the incubation systems described in “step 3.2” above respectively for reaction, and the positive control compound was verapamil (purchased from Sigma), so that a final concentration of the tested compound of the present application or the positive control compound was 1 μM. The incubation solution added with the compound was incubated in water at 37° C. in batches.
(§5) 3.4 30 μL of aliquot was taken from a reaction solution after 0.5 minute, 5 minutes, 15 minutes, 30 minutes and 45 minutes respectively, and the reaction was terminated by adding 5 times volume of cold acetonitrile containing 200 nM caffeine and 100 nM tolbutamide. The aliquot was centrifuged at a gravity acceleration of 3,220 g for 40 minutes, and 100 μL of supernatant was mixed with 100 μL of ultrapure water, and then used for LC-MS/MS analysis.
(§6) A peak area was determined by an extracted ion chromatogram. A slope value k was determined by linear regression of a remaining percentage of a parent drug relative to […] an incubation time curve.
(§7) In-vitro half-life periods (t1/2) were respectively calculated and determined according to the slope value, and an average value of the in-vitro half-life periods was converted into an in-vitro intrinsic clearance rate (CLint, represented by μL/min/mg protein).
For orientation: Microsomes from liver hold many membrane-bound enzymes, among them those of drug oxidation.

A short description of data set [2]: Stability test in liver microsomes, rat. In kind it is in vitro ADME. The settings on record: for half-life at 1 μM: 0.5 mg/mL. As to the method:
as §1, §2, §3, §4, §5, §6, §7

Another data set has as its system Ba/F3-LMNA-NTRK1-G667S. Description: In-vitro cell viability (CellTiter-Glo), BaF3 cell lines. The note with it: Mus musculus, 72 hours. In kind it is cell-based. As to the method: (§8) Hefei Precedo Biomedical Technology Co., Ltd. was commissioned to complete the testing example, and the cell lines used were constructed by this company.
(§9) In-vitro anti-proliferative effects of the compound of the present application on 6 BaF3 cell lines were measured.
(§10) 6 Ba/F3 cell lines were cultured with RPMI 1640 (Biological Industries, Israel)+10% fetal calf serum (Biological Industries, Israel)+1% double antibiotics (Penicillin Streptomycin solution, Coring, USA), and cells were cultured for two generations after resuscitation, to be tested.
(§11) The to-be-tested compound was prepared into 10 mM mother solution with DMSO, and then diluted to 1 mM with DMSO. The solution was diluted by 3 times to prepare into 1.0000 mM, 0.3333 mM, 0.1111 mM, 0.03704 mM, 0.01235 mM, 0.00412 mM, 0.00137 mM, 0.00046 mM, 0.00015 mM, and […], and stored in a 96-well drug plate (Beaver, Suzhou), with 10 concentration gradients in total. Meanwhile, an equal volume of DMSO solvent was used as a negative control.
(§12) The prepared 1,000× compounds of 10 concentration gradients were respectively diluted by 50 times into 20× compounds with complete medium, and stored in a 96-well drug plate (Beaver, Suzhou), with 10 concentration gradients in total. Meanwhile, an equal volume of DMSO solvent was used as a negative control.
(§13) Cell suspension in logarithmic growth phase was inoculated on a 96-well white cell culture plate (Corning 3917, NY, USA), and a volume of each well was 95 μl (about 2000 cells/well).
(§14) 5 μl of 20× to-be-tested compounds were respectively added into the culture plate containing 95 μl of cell suspension above, and mixed evenly, with 2 wells for each concentration gradient. Final concentrations of the to-be-tested compounds were 1.0000 μM, 0.3333 μM, 0.1111 μM, 0.03704 μM, 0.01235 μM, 0.00412 μM, 0.00137 μM, 0.00046 μM, 0.00015 μM, and […] respectively.
(§15) Incubation was carried out in an incubator at 37° C. under 5% CO2 for 72 hours.
(§16) The following steps were carried out according to the instruction of Promega CellTiter-Glo Luminescence Cell Viability Assay Kit (Promega-G7573).
(§17) A corresponding […] value RLU of each well was obtained through reading by SpectraMax Paradigm. Cell viability data was processed by the following formula:
(§18) Cell viability(%)=(RLUDrug−RLUMin)/(RLUMax−RLUMin)*100%. Cell viabilities of compounds of different concentrations were calculated in EXCEL, then cell viability curves were made by GraphPad Prism software, and related parameters were calculated. The parameters comprised a maximum cell viability, a minimum cell viability, and an IC50 value.

The test system of the next data set is Ba/F3-LMNA-NTRK1. The data set is described as above. Format: cell-based. The settings on record: Mus musculus, 72 hours. Here is the method: as §8, §9, §10, §11, §12, §13, §14, §15, §16, §17, §18
The test system of another data set is Ba/F3-LMNA-NTRK1-F589L. The data set is described as above. In kind it is cell-based. The note with it: Mus musculus, 72 hours. As to the method:
as §8, §9, §10, §11, §12, §13, §14, §15, §16, §17, §18

The next data set deals with Ba/F3-LMNA-NTRK1-V573I. Described as above. Format: cell-based. The settings on record: Mus musculus, 72 hours. As to the method:
as §8, §9, §10, §11, §12, §13, §14, §15, §16, §17, §18

Another data set has as its system Ba/F3-TEL-NTRK3. The description is as above. Format: cell-based. The note with it: Mus musculus, 72 hours. As to the method:
as §8, §9, §10, §11, §12, §13, §14, §15, §16, §17, §18

The next data set deals with Ba/F3-TEL-NTRK2. Described as above. In kind it is cell-based. The settings on record: Mus musculus, 72 hours. Here is the method:
as §8, §9, §10, §11, §12, §13, §14, §15, §16, §17, §18

The nature of data set [3]: Stability test in liver microsomes, human. In kind it is in vitro ADME. The note with it: for half-life at 1 μM: 0.5 mg/mL. Here is the method: as §1, §2, §3, §4, §5, §6, §7

SMILES strings stand for the structures.

For the compound `O=C1N[C@H]2C[C@H](C2)Oc2ncc(F)cc2[C@H]2CCCN2c2ccn3ncc1c3n2` (stereo in doubt) [Positive control 1, reference compound], the microsomal CLint at 1 μM in data set [1] was determined as 78.6 µL/min/mg; in data set [2], 123 µL/min/mg; in data set [3], 92.3 µL/min/mg. The half-life at 1 μM in data set [1] came out at 17.6 min; in [2], 11.3 min; in data set [3], 15 min. In addition, the results for the “% Remaining(45 min)” value in [1], in data set [2] and in data set [3] were 16.90%, 9.03% and 12.43%, respectively. For the same compound, the IC50 in the data set on Ba/F3-LMNA-NTRK1-G667S is 2.7 nM; in the data set on Ba/F3-LMNA-NTRK1, 0.5 nM; in the data set on Ba/F3-LMNA-NTRK1-F589L it was 6.6 nM; with Ba/F3-LMNA-NTRK1-V573I, 0.2 nM; in the data set on Ba/F3-TEL-NTRK3, 0.9 nM; in the data set with Ba/F3-TEL-NTRK2, 0.9 nM.

As to `O=C1N[C@H]2C[C@H](C2)Oc2ncc(F)cc2[C@H]2CCCN2c2nc3c1cnn3cc2F` [Example 2, ((1^3E,1^4E,2^2R,5^1S,5^3S)-1^6,3^5-difluoro-4-oxa-6-aza-1(5,3)-pyrazolo[1,5-a]pyrimidine-3(3,2)-pyridine-2(1,2)-pyrrolidine-5(1,3)-cyclobutancycloheptan-7-one], the microsomal CLint at 1 μM in data set [1] came to 106 µL/min/mg; in [2] it was 214 µL/min/mg; in data set [3], 86 µL/min/mg. Further, the half-life at 1 μM in [1] is 13 min; in data set [2], 6.5 min; in data set [3], 16.1 min. Also, the “% Remaining(45 min)” value in data set [1] was 9.22%; in [2], 2.37%; in [3], 14.38%. Also, the IC50 was determined as 3.4 nM in the data set on Ba/F3-LMNA-NTRK1-G667S; 0.7 nM with Ba/F3-LMNA-NTRK1; 2.4 nM with Ba/F3-LMNA-NTRK1-F589L; 0.3 nM in the data set with Ba/F3-LMNA-NTRK1-V573I; 1.7 nM in the data set with Ba/F3-TEL-NTRK3; 1.6 nM with Ba/F3-TEL-NTRK2.

As for `C[C@H]1Nc2nc3c(cnn3cc2F)C(=O)N[C@H]2C[C@H](C2)Oc2ncc(F)cc21` [Example 3, (3^1S,3^3S,6^3E,6^4E,8R)-1^5,6^6-difluoro-8-methyl-2-oxo-4,7-diaza-6(3,5)-pyrazolo[1,5-a]pyrimidine-1(2,3)-pyridine-3(1,3)-cyclobutylcyclooctane-5-one], the microsomal CLint at 1 μM in [1] was 32.1 µL/min/mg; in data set [2], 22.8 µL/min/mg; in data set [3], 11.1 µL/min/mg. Besides, the half-life at 1 μM in data set [1] turned out to be 43.2 min; in [2], 60.8 min; in data set [3], 128 min. Further, the “% Remaining(45 min)” value is 39.49% in data set [1], 51.22% in [2] and 69.89% in data set [3]. In addition, the IC50 was 8.4 nM with Ba/F3-LMNA-NTRK1-G667S; 1.6 nM in the data set with Ba/F3-LMNA-NTRK1; 1.2 nM in the data set on Ba/F3-LMNA-NTRK1-F589L; 1.1 nM in the data set on Ba/F3-LMNA-NTRK1-V573I; 5 nM with Ba/F3-TEL-NTRK3; 3.4 nM with Ba/F3-TEL-NTRK2.

For the compound `C[C@H]1Nc2ccn3ncc(c3n2)C(=O)N[C@H]2C[C@H](C2)Oc2ncc(F)cc21` [Positive control 2, reference compound], the intrinsic metabolic clearance (microsomal CLint) at 1 μM in data set [1] came out at 73.2 µL/min/mg; in data set [2], 30 µL/min/mg; in [3], 16.4 µL/min/mg. Also, the half-life at 1 μM in data set [1] worked out at 18.9 min; in data set [2] it was 46.3 min; in data set [3], 84.8 min. Besides, the “% Remaining(45 min)” value is reported as 11.64% in data set [1], 40.95% in [2] and 67.39% in [3]. For the same compound, the half-inhibitory concentration (IC50) worked out at 19.9 nM in the data set with Ba/F3-LMNA-NTRK1-G667S; 4.1 nM in the data set with Ba/F3-LMNA-NTRK1; 4.5 nM in the data set with Ba/F3-LMNA-NTRK1-F589L; 2.3 nM with Ba/F3-LMNA-NTRK1-V573I; 9.8 nM in the data set on Ba/F3-TEL-NTRK3; 7.3 nM with Ba/F3-TEL-NTRK2.
